What is called IC50 is the concentration needed to halve the response being measured. Low readings indicate greater potency in that assay, high ones weaker potency in that assay.

From US9796719B2, “Compounds and pharmaceutical compositions thereof for the treatment of inflammatory disorders” (GALAPAGOS NV, priority 2013, dated 2017) come the findings set out here.

Counter-ions that a name gives are not always drawn. Bounds are passed on as bounds.

In this assay the target is hENPP2 (UniProtKB/SwissProt Sequence ref Q13822) (Homo sapiens (Human), UniProt Q13822). Briefly: LPC hENPP2 assay (choline release, LPC as substrate). It is filed as biochemical. Summed up: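 Choline released from LPC by ENPP2 is quantified after stopping with stop-developer containing 0.6 U/mL choline oxidase, 0.6 U/mL peroxidase, 1.8 mM TOOS, 1.2 mM amino-antipyrine and 20 mM EGTA. Quinoneimine dye read at 555 nm after 30 min at room temperature.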

With `CCc1nc2ccc(N3CCC(N4CCCCC4)CC3)nn2c1N(C)c1nc(-c2ccc(F)cc2)cs1` [Cpd 111, N-(6-(1,4′-bipiperidin-1′-yl)-2-ethylimidazo[1,2-b]pyridazin-3-yl)-4-(4-fluorophenyl)-N-methylthiazol-2-amine], the IC50 was more than 1000 nM. The same measure for `CCc1nc2ccc(N3CCC(C(=O)N4CCOCC4)C3)nn2c1N(C)c1nc(-c2ccc(F)cc2)cs1` (stereo not shown) [Cpd 141, (1-(2-ethyl-3-((4-(4-fluorophenyl)thiazol-2-yl)(methyl)amino)imidazo[1,2-b]pyridazin-6-yl)pyrrolidin-3-yl)(morpholino) methanone]: more than 1000 nM; for `CCc1nc2ccc(N3CCC(CNC(=O)OC(C)(C)C)CC3)nn2c1N(C)c1nc(-c2ccc(F)cc2)cs1` [Cpd 103, [1-(2-Ethyl-3-{[4-(4-fluoro-phenyl)-thiazol-2-yl]-methyl-amino}-imidazo[1,2-b]pyridazin-6-yl)-piperidin-4-ylmethyl]-carbamic acid tert-butyl ester]: more than 1000 nM; for `CCc1nc2ccc(N3CCC(N4CCC(CO)CC4)C3)nn2c1N(C)c1nc(-c2ccc(F)cc2)c(C#N)s1` (stereo not shown) [Cpd 179, 2-((2-ethyl-6-(3-(4-(hydroxymethyl)piperidin-1-yl)pyrrolidin-1-yl)imidazo[1,2-b]pyridazin-3-yl)(methyl)amino)-4-(4-fluorophenyl) thiazole-5-carbonitrile]: 0.01 to 100 nM.

As to `CCc1nc2ccc(N3CC[C@H](NCC(=O)N(C)C)C3)nn2c1N(C)c1nc(-c2ccc(F)cc2)c(C#N)s1` [Cpd 175, (S)-2-(1-(3-((5-cyano-4-(4-fluorophenyl)thiazol-2-yl)(methyl)amino)-2-ethylimidazo[1,2-b]pyridazin-6-yl)pyrrolidin-3-ylamino)-N,N-dimethylacetamide], the IC50 was in the range of 0.01 to 100 nM. The same measure for `CCc1nc2ccc(N3CCN(CC(=O)N4CCC4)CC3)nn2c1N(C)c1nc(-c2ccc(F)cc2)cs1` [Cpd 36, 1-(azetidin-1-yl)-2-(4-(2-ethyl-3-((4-(4-fluorophenyl)thiazol-2-yl)(methyl)amino)imidazo[1,2-b]pyridazin-6-yl)piperazin-1-yl)ethanone]: 100 to 500 nM. The same measure for `CCc1nc2ccc(N3CC(CO)C3)nn2c1N(C)c1nc(-c2ccc(F)cc2)cs1` [Cpd 153, (1-(2-ethyl-3-((4-(4-fluorophenyl)thiazol-2-yl)(methyl)amino)imidazo[1,2-b]pyridazin-6-yl)azetidin-3-yl)methanol]: more than 1000 nM; for `CCc1nc2ccc(N3CCC(N4CCN(C(C)=O)CC4)C3)nn2c1N(C)c1nc(-c2ccc(F)cc2)c(C#N)s1` (stereo not shown) [Cpd 180, 2-((6-(3-(4-acetoylpiperazin-1-yl)pyrrolidin-1-yl)-2-ethylimidazo[1,2-b]pyridazin-3-yl)(methyl)amino)-4-(4-fluorophenyl) thiazole-5-carbonitrile]: 0.01 to 100 nM. To `CCc1nc2ccc(N3CC(NCC(=O)NC)C3)nn2c1N(C)c1nc(-c2ccc(F)cc2)cs1` [Cpd 157, 2-(1-(2-ethyl-3-((4-(4-fluorophenyl)thiazol-2-yl)(methyl)amino)imidazo[1,2-b]pyridazin-6-yl)azetidin-3-ylamino)-N-methylacetamide] belongs 500 to 1000 nM. On to `CCc1nc2ccc(N3CCC4(CCCCC4)CC3)nn2c1N(C)c1nc(-c2ccc(F)cc2)cs1` [Cpd 77, N-(2-ethyl-6-(3-azaspiro[5.5]undecan-3-yl)imidazo[1,2-b]pyridazin-3-yl)-4-(4-fluorophenyl)-N-methylthiazol-2-amine], for which the IC50 was more than 1000 nM. Consider `CCc1nc2ccc(N3CCC(C(=O)NCCO)C3)nn2c1N(C)c1nc(-c2ccc(F)cc2)cs1` (stereo not shown) [Cpd 140, 1-(2-ethyl-3-((4-(4-fluorophenyl)thiazol-2-yl)(methyl)amino)imidazo[1,2-b]pyridazin-6-yl)-N-(2-hydroxyethyl) pyrrolidine-3-carboxamide], for which the IC50 was more than 1000 nM.

Compound `CCc1nc2ccc(N3CCC(CN)CC3)nn2c1N(C)c1nc(-c2ccc(F)cc2)cs1` [Cpd 104, N-(6-(4-(aminomethyl)piperidin-1-yl)-2-ethylimidazo[1,2-b]pyridazin-3-yl)-4-(4-fluorophenyl)-N-methylthiazol-2-amine] came in with an IC50 of more than 1000 nM. The same measure for `CCc1nc2ccc(N3CCC4(CCN(C(=O)OC(C)(C)C)C4)C3)nn2c1N(C)c1nc(-c2ccc(F)cc2)c(C#N)s1` (stereo not shown) [Cpd 165, tert-butyl 7-(3-((5-cyano-4-(4-fluorophenyl)thiazol-2-yl)(methyl)amino)-2-ethylimidazo[1,2-b]pyridazin-6-yl)-2,7-diazaspiro[4.4] nonane-2-carboxylate]: 100 to 500 nM; for `CCc1nc2ccc(N3CCC(N4CCC(O)CC4)C3)nn2c1N(C)c1nc(-c2ccc(F)cc2)c(C#N)s1` (stereo not shown) [Cpd 182, 2-((2-ethyl-6-(3-(4-hydroxypiperidin-1-yl)pyrrolidin-1-yl)imidazo[1,2-b]pyridazin-3-yl)(methyl)amino)-4-(4-fluorophenyl) thiazole-5-carbonitrile]: 0.01 to 100 nM. To `CCc1nc2ccc(N3CCN4C(=O)COC[C@@H]4C3)nn2c1N(C)c1nc(-c2ccc(F)cc2)cs1` [Compound 66, (S)-8-(2-ethyl-3-((4-(4-fluorophenyl)thiazol-2-yl)(methyl)amino)imidazo[1,2-b]pyridazin-6-yl)hexahydropyrazino[2,1-c][1,4]oxazin-4(1H)-one] belongs more than 1000 nM; to `CCc1nc2ccc(N3CCC(OC=O)C3)nn2c1N(C)c1nc(-c2ccc(F)cc2)cs1` (stereo not shown) [Compound 130, 1-(2-ethyl-3-((4-(4-fluorophenyl)thiazol-2-yl)(methyl)amino)imidazo[1,2-b]pyridazin-6-yl)pyrrolidin-3-yl formate], more than 1000 nM; to `CCc1nc2ccc(N3CCC(CO)C3)nn2c1N(C)c1nc(-c2ccc(F)cc2)c(CO)s1` (stereo not shown) [Compound 144, (1-(2-ethyl-3-((4-(4-fluorophenyl)-5-(hydroxymethyl)thiazol-2-yl)(methyl)amino)imidazo[, 2-b]pyridazin-6-yl)pyrrolidin-3-yl)methanol], 500 to 1000 nM. The same measure for `CCc1nc2ccc(N3CCN(CC(=O)N(C)C)CC3)nn2c1N(C)c1nc(-c2ccc(F)cc2C)cs1` [Cpd 73, 2-(4-(2-ethyl-3-((4-(4-fluoro-2-methylphenyl)thiazol-2-yl)(methyl)amino)imidazo[1,2-b]pyridazin-6-yl)piperazin-1-yl)-N,N-dimethylacetamide]: 100 to 500 nM; for `CCc1nc2cnc(N3CCNCC3)cn2c1N(C)c1nc(-c2ccc(F)cc2C#N)cs1` [Cpd 15, 2-(2-((2-ethyl-6-(piperazin-1-yl)imidazo[1,2-a]pyrazin-3-yl)(methyl)amino)thiazol-4-yl)-5-fluorobenzonitrile]: more than 1000 nM; for `CCc1nc2ccc(N3CCC(CO)C3)nn2c1N(C)c1nc(-c2ccc(F)cc2)c(C#N)s1` (stereo not shown) [Cpd 173, 2-((2-ethyl-6-(3-(hydroxymethyl)pyrrolidin-1-yl)imidazo[1,2-b]pyridazin-3-yl)(methyl)amino)-4-(4-fluorophenyl) thiazole-5-carbonitrile]: 100 to 500 nM. The compound `CCc1nc2cnc(N3CCN(CC(=O)N4CCC4)CC3)cn2c1N(C)c1nc(-c2ccc(F)cc2)cs1` [Cpd 13, 1-(azetidin-1-yl)-2-(4-(2-ethyl-3-((4-(4-fluorophenyl)thiazol-2-yl)(methyl)amino)imidazo[1,2-a]pyrazin-6-yl)piperazin-1-yl)ethanone] gave an IC50 of more than 1000 nM.

In turn, `CCc1nc2ccc(N3CCC(N4CCC(N(C)C(C)=O)CC4)C3)nn2c1N(C)c1nc(-c2ccc(F)cc2)c(C#N)s1` (stereo not shown) [Cpd 181, N-(1-(1-(3-((5-cyano-4-(4-fluorophenyl)thiazol-2-yl)(methyl)amino)-2-ethylimidazo[1,2-b]pyridazin-6-yl)pyrrolidin-3-yl)piperidin-4-yl)-N-methylacetamide] registered an IC50 of 0.01 to 100 nM. The same measure for `CCc1nc2ccc(C3CCN(CC(=O)N4CC(O)C4)CC3)nn2c1N(C)c1nc(-c2ccc(F)cc2C#N)c(C)s1` [Cpd 210, 2-(2-((2-ethyl-6-(1-(2-(3-hydroxyazetidin-1-yl)-2-oxoethyl)piperidin-4-yl)imidazo[1,2-b]pyridazin-3-yl)(methyl)amino)-5-methylthiazol-4-yl)-5-fluorobenzonitrile]: more than 1000 nM; for `CCc1nc2ccc(C3CCN(CC(=O)NC)CC3)nn2c1N(C)c1nc(-c2ccc(F)cc2C#N)c(C)s1` [Cpd 211, 2-(4-(3-((4-(2-cyano-4-fluorophenyl)-5-methylthiazol-2-yl)(methyl)amino)-2-ethylimidazo[1,2-b]pyridazin-6-yl)piperidin-l-yl)-N-methylacetamide]: more than 1000 nM. For the compound `CCc1nc2ccc(N3CCC4(CCN(C(C)=O)C4)C3)nn2c1N(C)c1nc(-c2ccc(F)cc2)c(C#N)s1` (stereo not shown) [Cpd 167, 2-((6-(7-acetoyl-2,7-diazaspiro[4.4]nonan-2-yl)-2-ethylimidazo[1,2-b]pyridazin-3-yl)(methyl)amino)-4-(4-fluorophenyl) thiazole-5-carbonitrile], the IC50 lay within 0.01 to 100 nM. The same measure for `CCc1nc2ccc(N3CCN(CCNC(=O)OC(C)(C)C)CC3)nn2c1N(C)c1nc(-c2ccc(F)cc2)cs1` [Cpd 56, tert-butyl 2-(4-(2-ethyl-3-((4-(4-fluorophenyl)thiazol-2-yl)(methyl)amino)imidazo[1,2-b]pyridazin-6-yl)piperazin-1-yl)ethylcarbamate]: more than 1000 nM; for `CCc1nc2ccc(N3CCC(N4CCC(OC)CC4)C3)nn2c1N(C)c1nc(-c2ccc(F)cc2)c(C#N)s1` (stereo not shown) [Cpd 183, 2-((2-ethyl-6-(3-(4-methoxypiperidin-1-yl)pyrrolidin-1-yl)imidazo[1,2-b]pyridazin-3-yl)(methyl)amino)-4-(4-fluorophenyl) thiazole-5-carbonitrilc]: 0.01 to 100 nM; for `CCc1nc2cnc(N3CCN(CC(=O)N4CC(O)C4)CC3)cn2c1N(C)c1nccc(-c2ccc(F)cc2C#N)n1` [Cpd 18, 2-(2-((2-ethyl-6-(4-(2-(3-hydroxyazetidin-1-yl)-2-oxoethyl)piperazin-1-yl)imidazo[1,2-a]pyrazin-3-yl)(methyl)amino)pyrimidin-4-yl)-5-fluorobenzonitrile]: more than 1000 nM.
